Consider three compounds from publication PMC6364133, “Selectivity of Dietary Phenolics for Inhibition of Human Monoamine Oxidases A and B” (BioMed Research International, 2019).

Data set [1] addresses T1, MAO-A (Homo sapiens, UniProt P21397).
T1 construct: purchased BD Biosciences (San Jose, CA) or Corning Discovery Labware (Woburn, MA)
T1 sequence (P21397 1-527): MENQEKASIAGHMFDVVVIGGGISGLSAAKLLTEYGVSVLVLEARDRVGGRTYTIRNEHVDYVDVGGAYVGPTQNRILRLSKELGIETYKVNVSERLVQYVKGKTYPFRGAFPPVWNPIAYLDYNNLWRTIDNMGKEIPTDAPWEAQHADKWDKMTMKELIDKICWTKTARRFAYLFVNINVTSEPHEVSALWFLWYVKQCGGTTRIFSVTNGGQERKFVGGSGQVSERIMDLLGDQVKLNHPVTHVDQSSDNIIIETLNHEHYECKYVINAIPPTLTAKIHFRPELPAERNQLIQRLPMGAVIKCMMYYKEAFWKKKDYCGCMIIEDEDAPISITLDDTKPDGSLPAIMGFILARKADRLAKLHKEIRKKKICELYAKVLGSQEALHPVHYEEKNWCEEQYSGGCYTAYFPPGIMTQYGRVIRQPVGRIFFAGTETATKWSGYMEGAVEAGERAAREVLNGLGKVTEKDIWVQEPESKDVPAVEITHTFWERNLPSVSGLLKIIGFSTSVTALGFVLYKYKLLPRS
To be noted: competitive; cited from earlier work.

In data set [2] the target is T2, MAO-B (Homo sapiens, UniProt P27338).
T2 construct: purchased BD Biosciences (San Jose, CA) or Corning Discovery Labware (Woburn, MA)
T2 sequence (P27338 1-520): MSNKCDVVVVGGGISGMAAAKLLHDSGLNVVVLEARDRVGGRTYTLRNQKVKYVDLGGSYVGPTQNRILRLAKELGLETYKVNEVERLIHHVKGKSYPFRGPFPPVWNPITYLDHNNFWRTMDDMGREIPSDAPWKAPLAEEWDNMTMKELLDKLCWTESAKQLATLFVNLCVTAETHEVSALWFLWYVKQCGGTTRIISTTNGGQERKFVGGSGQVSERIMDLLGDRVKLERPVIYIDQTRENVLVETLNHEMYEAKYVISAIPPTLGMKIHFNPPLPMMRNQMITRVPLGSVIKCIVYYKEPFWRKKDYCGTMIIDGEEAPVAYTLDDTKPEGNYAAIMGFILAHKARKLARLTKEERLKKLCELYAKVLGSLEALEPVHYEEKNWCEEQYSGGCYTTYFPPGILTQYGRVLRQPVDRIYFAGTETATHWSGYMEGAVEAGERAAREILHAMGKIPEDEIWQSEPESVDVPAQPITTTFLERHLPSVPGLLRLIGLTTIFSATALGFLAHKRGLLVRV
To be noted: competitive; cited from earlier work.

For data set [3], the target named is T1, MAO-A. Description: MAO-A inhibition, kynuramine to 4-hydroxyquinoline, HPLC-fluorescence. Format: biochemical.
For data set [4], the target named is T2, MAO-B. Description: MAO-B inhibition, kynuramine to 4-hydroxyquinoline, HPLC-fluorescence. Format: biochemical.
Data set [5] concerns the target T2, MAO-B. Description: Inhibition mechanism studies (competition, time dependence) with MAO-B. The class given is biochemical.
The conditions of data set [6]: rats, 56 or 168 mg/kg/day by gavage for 14 continuous days; cited from earlier work.
For data set [7] the following is noted: human, 125mg twice daily orally for 6-8 weeks; cited from earlier work.
Another data set deals with MAO-A in rat brain. The note with it: cited from earlier work.
The test system of data set [8] is MAO-A. The note with it: cited from earlier work.
Data set [9] deals with MAO-B. To be noted: up to 10μM; cited from earlier work.
For data set [10] the following is noted: cited from earlier work.
The mark [11] stands for this setting: highest expected luminal concentration: curcumin 140, guaiacol 435, isoeugenol 110, pterostilbene 270, resveratrol 94, zingerone 51 µM, p < 0.05 vs control.
The mark [12] stands for this setting: kynuramine 10 µM, MAO-A 0.01 mg/mL, 15 min.

Structures are written as SMILES. Entries after “also recorded” stand apart in the source; their conditions may differ. Read-outs that look alike come from different tables or passages of the source.

As usually defined, the Ki is the dissociation constant of the complex between target and ligand, obtained from inhibition or displacement. Regarding `C=CCc1ccc(O)c(OC)c1` [eugenol], the Ki was 26 µM on MAO-A [1] and 211 µM at MAO-B [2].

For orientation: IC50 means the concentration at which inhibition is half-maximal. `COc1cc(/C=C/c2ccc(O)cc2)cc(OC)c1` [pterostilbene]: the “inhibition of MAO-A activity in screening” value against MAO-A [3] (setting [11]) is recorded as “significantly inhibited”. Also, on MAO-A [3] (setting [12]), the IC50 worked out at 13.4 ± 1.5 µM and the “MAO-A Hill coefficient” value was 1.7 ± 0.3. Besides, the “Selectivity Index” value at MAO-A [3] (ratio of MAO-B IC50/MAO-A IC50) turned out to be 0.0103. In addition, the “inhibition of MAO-B activity in screening” value against MAO-B [4] (setting [11]) is on record as “significantly inhibited”. In addition, inhibition against MAO-B [4] (kynuramine 10 µM, MAO-B 0.01 mg/mL, 15 min) was half-maximal at 138 ± 13 nM (IC50). On MAO-B [5], the “mechanism of MAO-B inhibition” value was “competitive time-independent; also recorded: competitive, time-independent”. Further, at MAO-B [5] (0.7 μM, preincubation 0-60 min), the “time profile of MAO-B activity on preincubation” value is “not significantly different from the control”. For the same compound, the “Vmax of kynuramine with MAO-B in presence of inhibitor” value at MAO-B [5] (pterostilbene 0.45 μM, kynuramine 2-450 μM) is recorded as 3.28 ± 0.19 nmol/min/mg protein. Further, the oral bioavailability in data set [6] is 80%. In data set [7], the plasma low-density lipoproteins result is recorded as “slightly raised”; the “systolic and diastolic blood pressure” value was “reduces”.

As for `Oc1ccc(/C=C/c2cc(O)cc(O)c2)cc1` [resveratrol], the Ki at MAO-B [4] (from IC50 assuming competitive inhibition) is 10.2 µM; on MAO-A in rat brain, 2500 nM. In the data set with MAO-A in rat brain, the IC50 is 2000 nM. Also, the MAO-A inhibition entry in the data set on MAO-A [8] is given as “inhibitor of MAO-A”. The MAO-B inhibition entry in the data set on MAO-B [9] was “did not significantly inhibit”. The plasma protein binding in [10] was 91%.
